Our source for the GI50 and TGI values is PubChem BioAssay (NCI).

Molecules are shown by their SMILES.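 How tested: cells in 96-well plates exposed to compound for 48 hours at five concentrations. GI50: concentration for 50% inhibition of growth. TGI marks complete inhibition of growth.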

The first assay relates to MDA-MB-231 breast. The assay can be described thus: DTP human tumour cell line panel, 48 h.
Consider `Nc1n[nH]c2ccc([C@@H]3Nc4ccc5[nH]ncc5c4[C@H]4[C@H]5CCC(C5)[C@H]43)cc12`, for which the GI50 is 0.688 µM and the TGI stood at 18.5 µM.

In a further assay the test system is SW-620 colon. The assay can be described thus: DTP human tumour cell line panel, 48 h.
On to `C[C@@H]1CC[C@H]2C(COCC3=C(C(F)(F)F)O[C@@H]4O[C@@]5(C)CC[C@H]6[C@H](C)CC[C@@H]3[C@@]46OO5)=C(C(F)(F)F)O[C@@H]3O[C@@]4(C)CC[C@@H]1[C@]32OO4`, for which the GI50 is less than 0.01 µM and the TGI is greater than 100 µM.
The compound `CCOc1ccc(NC(=O)CC2Sc3ccccc3NC2=O)cc1` (stereo unspecified) had a TGI of 33.5 µM.
Same read-out and setting: as for `Cn1cc(NC(=O)c2cc(NC(=O)CCCCCCCCCCC(=O)Nc3cc(C(=O)Nc4cc(C(=O)NCCC(=N)N)n(C)c4)n(C)c3)cn2C)cc1C(=O)NCCC(=N)N`, the figure is 55 µM.
In the case of `C1COCCN1.C1COCCN1.N.N.[Cl-].[Pt+2]`, the GI50 was greater than 100 µM and the TGI was greater than 100 µM.
Turning to `Cc1ccccc1C(C#N)C(=O)C(=O)Nc1nc([N+](=O)[O-])cs1` (stereo unspecified), the TGI was greater than 100 µM.
On the same count and under the same terms, for `COC(=O)C(c1[nH]nc2ccccc12)C(C(=O)OC)c1[nH]nc2ccccc12` (stereo unspecified) the value was 33.7 µM; for `C#CCNC(=O)NC(CCCNC(=O)OCc1ccccc1)C(=O)OCc1ccccc1` (stereo unspecified), greater than 100 µM.
On the same count and under the same terms, as for `O=c1[nH]c2ccccc2cc1C(Cl)=C(Cl)Cl`, the figure is greater than 100 µM; as for `O=[N+]([O-])[C@@H]1C2C=CC(C2)[C@H]1Cl` (stereo partly specified), greater than 100 µM; as for `COC(=O)C(C#N)=C1c2ccccc2Oc2ccccc21`, greater than 100 µM.
Take `COc1c(C2CC(=O)Nc3c2cnn3Cc2ccco2)cc2c(c1OC)OCO2` (stereo unspecified): the GI50 is 0.385 µM and the TGI is greater than 100 µM.
Turning to `N#CC1(c2nc3ccccc3o2)C(=O)C(=O)N(C2C3CC4CC(C3)CC2C4)C(=O)C1=O` (stereo unspecified), the TGI was greater than 100 µM.
Same read-out and setting: for `O=C1NC(c2ccc(O)cc2)C2CCC1C2` (stereo unspecified) the value was greater than 100 µM; for `CCOC(=O)C1(CC)CCCCC(=O)N1` (stereo unspecified), greater than 100 µM; for `C=CC1=CSNN1`, greater than 100 µM.
Still for that read-out and setting: as for `O=C(C#Cc1c[nH]c(=O)[nH]c1=O)c1ccccc1Cl`, the figure is 27.2 µM; as for `CC(=O)OC1=C2CC3(C)OC(=O)CC(C)(C)C3=CC=C2C=C(C(C)C)C1=O` (stereo unspecified), 1.14 µM; as for `CCCCCCCCCCCCCCCC(=O)NCC(COP(=O)([O-])OCC[N+](C)(C)C)OCC` (stereo unspecified), 27.4 µM.
With `COc1ccc(C(=O)Nc2ncc(Cc3ccc(Cl)cc3)s2)cc1`, the GI50 is 0.0455 µM and the TGI was greater than 100 µM.
The compound `O=C1NC2(CCCC2)C(=O)C12CCCC2` displayed a TGI greater than 100 µM.
Take `O=C1CCCN(c2ccccc2)N1`: the TGI is greater than 100 µM.
Take `CN(C)/C(=N/C(=S)Nc1ccccc1)SCc1ccccc1`: the TGI was greater than 100 µM.
Regarding `CCOC(=O)C1=C(C)Nc2ccccc2S1`, the TGI was greater than 100 µM.
As to `Nc1n[nH]c2ccc([C@@H]3Nc4ccc5[nH]ncc5c4[C@H]4[C@H]5CCC(C5)[C@H]43)cc12`, the GI50 was 0.372 µM and the TGI was greater than 100 µM.
The compound `CCOC(=O)CC1=Nc2ccccc2SC1` returned a TGI greater than 100 µM.

The subject of the next assay is EKVX NSCLC. As to the kind of experiment: DTP human tumour cell line panel, 48 h.
Turning to `C[C@@H]1CC[C@H]2C(COCC3=C(C(F)(F)F)O[C@@H]4O[C@@]5(C)CC[C@H]6[C@H](C)CC[C@@H]3[C@@]46OO5)=C(C(F)(F)F)O[C@@H]3O[C@@]4(C)CC[C@@H]1[C@]32OO4`, the concentration for 50% growth inhibition (GI50) is 0.0333 µM and the TGI was greater than 100 µM.
`CCOc1ccc(NC(=O)CC2Sc3ccccc3NC2=O)cc1` (stereo unspecified) displayed a TGI greater than 100 µM.
Same read-out and setting: for `Cn1cc(NC(=O)c2cc(NC(=O)CCCCCCCCCCC(=O)Nc3cc(C(=O)Nc4cc(C(=O)NCCC(=N)N)n(C)c4)n(C)c3)cn2C)cc1C(=O)NCCC(=N)N` the value was 90.2 µM.
For the compound `C1COCCN1.C1COCCN1.N.N.[Cl-].[Pt+2]`, the GI50 was greater than 100 µM and the TGI is greater than 100 µM.
Compound `Cc1ccccc1C(C#N)C(=O)C(=O)Nc1nc([N+](=O)[O-])cs1` (stereo unspecified) registered a TGI greater than 100 µM.
The same measure, in the same setting: for `COC(=O)C(c1[nH]nc2ccccc12)C(C(=O)OC)c1[nH]nc2ccccc12` (stereo unspecified) the value was greater than 100 µM.
Still for that read-out and setting: as for `C#CCNC(=O)NC(CCCNC(=O)OCc1ccccc1)C(=O)OCc1ccccc1` (stereo unspecified), the figure is greater than 100 µM; as for `O=c1[nH]c2ccccc2cc1C(Cl)=C(Cl)Cl`, greater than 100 µM; as for `O=[N+]([O-])[C@@H]1C2C=CC(C2)[C@H]1Cl` (stereo partly specified), greater than 100 µM.
`COC(=O)C(C#N)=C1c2ccccc2Oc2ccccc21`: the TGI is greater than 100 µM.
On the same count and under the same terms, for `N#CC1(c2nc3ccccc3o2)C(=O)C(=O)N(C2C3CC4CC(C3)CC2C4)C(=O)C1=O` (stereo unspecified) the value was greater than 100 µM; for `O=C1NC(c2ccc(O)cc2)C2CCC1C2` (stereo unspecified), greater than 100 µM; for `CCOC(=O)C1(CC)CCCCC(=O)N1` (stereo unspecified), greater than 100 µM.
For the compound `C=CC1=CSNN1`, the TGI is greater than 100 µM.
The same measure, in the same setting: as for `O=C(C#Cc1c[nH]c(=O)[nH]c1=O)c1ccccc1Cl`, the figure is 36.5 µM.
The compound `CC(=O)OC1=C2CC3(C)OC(=O)CC(C)(C)C3=CC=C2C=C(C(C)C)C1=O` (stereo unspecified) showed a TGI of 3.57 µM.
On the same count and under the same terms, as for `CCCCCCCCCCCCCCCC(=O)NCC(COP(=O)([O-])OCC[N+](C)(C)C)OCC` (stereo unspecified), the figure is 36.5 µM.
Consider `COc1ccc(C(=O)Nc2ncc(Cc3ccc(Cl)cc3)s2)cc1`, for which the 50% growth inhibitory concentration (GI50) was 0.26 µM and the concentration for total growth inhibition (TGI) is greater than 100 µM.
For the compound `O=C1NC2(CCCC2)C(=O)C12CCCC2`, the total growth inhibition concentration (TGI) was greater than 100 µM.
As for `O=C1CCCN(c2ccccc2)N1`, the TGI is greater than 100 µM.
The same measure, in the same setting: as for `CN(C)/C(=N/C(=S)Nc1ccccc1)SCc1ccccc1`, the figure is greater than 100 µM; as for `CCOC(=O)C1=C(C)Nc2ccccc2S1`, greater than 100 µM.
Turning to `Nc1n[nH]c2ccc([C@@H]3Nc4ccc5[nH]ncc5c4[C@H]4[C@H]5CCC(C5)[C@H]43)cc12`, the GI50 was 0.606 µM and the TGI is greater than 100 µM.
The compound `CCOC(=O)CC1=Nc2ccccc2SC1` showed a TGI greater than 100 µM.
Same read-out and setting: as for `C=CCSC[C@H](NC(=O)COc1ccccc1)C(=O)NC(C(=O)OCc1ccc([N+](=O)[O-])cc1)=C(C)C`, the figure is greater than 100 µM.

As a reminder, the GI50 is the concentration at which growth is held to half of that of the control. Broadly, the TGI is the concentration at which net growth stops. Higher therefore signals less potent growth arrest.
